One data set deals with plasma proteins. The conditions noted are these: concentration range of 0.1 to 2.0 μg/mL; cited from earlier work.
Data set [1] can be described thus: Solubility of amantadine HCl in water. The format is physicochemical. The conditions noted are these: 160 mg, 240 mg and 320 mg of amantadine HCl.
For data set [2] the following is noted: cited from earlier work.
The conditions of data set [3]: cited from earlier work. The source holds these as a separate data set.

SMILES strings stand for the structures.

Regarding `NC12CC3CC(CC(C3)C1)C2` [Amantadine, amantadine], the “bound to plasma proteins” value with plasma proteins was 67%. Besides, in data set [1], the Solubility in water entry was “soluble in 250 mL water”. In addition, in data set [2] (creatinine clearance less than 40 mL/min/1.73 m^2), the “elimination half-life change in renal insufficiency” value is on record as “increases two to three fold or greater”. In addition, in data set [2] (patients on chronic maintenance hemodialysis), the elimination half-life result is “averages eight days”. In addition, in data set [3] (after intravenous administration), the volume of distribution is 3 to 8 L/kg. The “reduction of renal clearance of amantadine” value in data set [3] (coadministration of quinine or quinidine) is reported as “about 30%”. Besides, in data set [3] (in vivo), the “administered dose excreted unchanged in urine” value was “approximately 85%” and the “metabolism as share of the total clearance” value is 5-15%.

Values taken from patent publication US10500170B2, “Composition and method for treating neurological disease” (Osmotica Kereskedelmi és Szolgáltató Korlátolt Felelõsségû …, priority 2018, dated 2019).
